Key:
Type in all cases: binding
PDZ3 of PSD-95 = target: T1, PDZ3 of PSD-95 (Homo sapiens, UniProt P78352); assay: FP inhibition assay, Cy5-CRIPT probe / PDZ3; conditions: concentrations reaching 500–1800 μM; Cy5-CRIPT 50 nM; [PDZ3] = 5 μM
T1 construct: PDZ3 (309-401); made in house; host or cells: E. coli BL21-DE3 pLysS
Method: (§1) Fluorescent probes were made by attaching fluorophores (Cy5) to C-terminal 10- or 11-mer (C10 or C11) peptide ligands representing canonical and natural occurring protein partners (Supplementary Table S1). […] (Fig. 2).
(§2) (b) Cy5-GluN2B as probe (50 nM), [PDZ2] = 6 μM. (c) Cy5-CRIPT as probe (50 nM), [PDZ3] = 5 μM. […] Error bars indicate SEM based on three individual measurements. […]
(§3) Incubation time was 10–15 minutes (room temperature), and the assay was performed in a 1 × TBS buffer (150 mM NaCl, 10 mM Tris, pH 7.4) using black flat-bottom 384-well plates (Corning Life Sciences, NY) and a Safire2 plate-reader (Tecan, Männedorf, Switzerland). […] TAMRA- and Cy5-probes were measured at excitation/emission values of 530/585 nm (bandwidth = 20 nm) and 635/670 nm (bandwidth = 15 nm), respectively. […]
(§4) FP values were fitted to the general equation: Y = Bottom + (Top–Bottom)/[1 + (10^(X-logIC50)*HillSlope)], where X is the logarithmic value of peptide/compound concentration, and Y is the experimental FP values. Competitive inhibition constants, Ki values, were calculated from the IC50 values to quantify affinities between test substance and protein[42]. […]

[1] = target: T2, nNOS-PDZ/PSD-95-PDZ1-2 interaction (Homo sapiens, UniProt P29475); assay: 'indirect' FP assay, Cnskr2 probe / PSD-95-PDZ1-2 / nNOS-PDZ
T2 construct: nNOS-PDZ (12–130, human); PDZ1-2 (61-249); made in house; host or cells: E. coli
T2 sequence (P29475 12-130): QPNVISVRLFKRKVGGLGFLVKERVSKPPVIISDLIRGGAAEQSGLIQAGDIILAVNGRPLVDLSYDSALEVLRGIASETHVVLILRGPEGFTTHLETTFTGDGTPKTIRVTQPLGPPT
From the text: (§5) First we tested a series of 23 fluorescent-labelled C-terminal peptide ligands (Supplementary Table S1) derived from PDZ-interacting proteins in order to find a probe with good activity towards the PSD-95 PDZ domains and no or little activity against nNOS-PDZ (Supplementary Fig. S1). The Cnskr2 probe fulfilled these selectivity criteria and was used to generate saturation curves with PDZ2 and PDZ1-2 of PSD-95 (Fig. 4a). […] Next, fixed concentrations of TAMRA-Cnskr2, PSD-95-PDZ2/1-2, and nNOS-PDZ were applied, corresponding to the conditions at IC50 of the nNOS-PDZ inhibition curve (Fig. 4b) where sensitivity of the assay is greatest. […] Here, we used the Sapk3-peptide as it has the desired high affinity to α1-Syntrophin-PDZ and low affinity to nNOS-PDZ (Supplementary Fig. S1).
(§6) The minor increases in mP at high concentrations, 260-2900 μM, were due to fluorescence artefacts.
(§7) Similar, this assay was established with Syntrophin-PDZ and Sapk3 as probe (Fig. 4d).
(§8) In all cases, the DMSO effect on the assay was tested and found negligible.

[2] = target: T3, nNOS-PDZ/PSD-95-PDZ2 interaction (Homo sapiens, UniProt P29475); assay: 'indirect' FP assay, Cnskr2 probe / PSD-95-PDZ2 / nNOS-PDZ; conditions: for activity in indirect FP assay (nNOS-PDZ/PSD-95-PDZ2): up to 500–600 μM, Cy5-Cnskr2 5 nM / PSD-95-PDZ2 3 μM / nNOS-PDZ 5 μM
T3 construct: nNOS-PDZ (12–130, human); PDZ2 (155-249); made in house; host or cells: E. coli
T3 sequence (P29475 12-130): as above
From the text: as §5, §6, §7, §8

PDZ2 of PSD-95 = target: T4, PDZ2 of PSD-95 (Homo sapiens, UniProt P78352); assay: FP inhibition assay, Cy5-GluN2B probe / PDZ2; conditions: concentrations reaching 500–1800 μM; Cy5-GluN2B 50 nM; [PDZ2] = 6 μM
T4 construct: PDZ2 (155-249); made in house; host or cells: E. coli BL21-DE3 pLysS
T4 sequence (P78352 155-249): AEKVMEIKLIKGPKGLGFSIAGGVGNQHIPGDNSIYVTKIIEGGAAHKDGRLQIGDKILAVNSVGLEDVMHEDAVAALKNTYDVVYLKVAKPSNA
Method: as §1, §2, §3, §4

T1 sequence (P78352 309-401): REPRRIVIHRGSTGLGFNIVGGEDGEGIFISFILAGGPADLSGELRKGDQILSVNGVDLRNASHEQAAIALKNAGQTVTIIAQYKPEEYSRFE

Oc1c(Cl)cc(Cl)cc1CNc1ccc2[nH]nnc2c1 [IC87201, 2-((1H-Benzo[d][1–3]triazol-5-ylamino)methyl)-4-6-dichlorophenol]
inhibition of probe-PDZ interaction (PDZ3) (PDZ3 of PSD-95): did not inhibit
activity in indirect FP assay (nNOS-PDZ/PSD-95-PDZ1-2) ([1]; up to 500–600 μM, Cy5-Cnskr2 5 nM / PSD-95-PDZ1-2 1 μM / nNOS-PDZ 5 μM): no activity
activity in indirect FP assay (nNOS-PDZ/PSD-95-PDZ2) [2]: no activity
inhibition of probe-PDZ interaction (PDZ2) (PDZ2 of PSD-95): did not inhibit

O=C(O)c1ccc(NCc2cc(Cl)cc(Cl)c2O)cc1O [ZL006, 4-((3,5-Dichloro-2-hydroxybenzyl)amino)-2-hydroxybenzoic acid]
inhibition of probe-PDZ interaction (PDZ3) (PDZ3 of PSD-95): did not inhibit
rise in FP signal (inhibition of nNOS-PDZ/PSD-95-PDZ1-2) ([1]; ZL006 0-2900 μM, TAMRA-Cnskr2 5 nM / PSD-95-PDZ1-2 1 μM / nNOS-PDZ 2.5 μM): no rise in FP signal
rise in FP signal (inhibition of nNOS-PDZ/PSD-95-PDZ2) ([2]; ZL006 0-2900 μM, TAMRA-Cnskr2 5 nM / PSD-95-PDZ2 […] / nNOS-PDZ 1 μM): no rise in FP signal
activity in indirect FP assay (nNOS-PDZ/PSD-95-PDZ2) [2]: no activity
inhibition of probe-PDZ interaction (PDZ2) (PDZ2 of PSD-95): did not inhibit
